Source: paper PMC12905488, “De novo cyclic peptides allow visualisation of the monomeric and functional amyloid conformations of the kinase RIPK3” (Biochemical Journal, 2026)
Where a SMILES comes first, the peptide text is derived from it. Bridges are numbered along the chain shown (N, C = ends).

Columns and labels:
HT-29 cells = assay: Confocal imaging of labelled peptides in fixed, permeabilised HT-29 cells; type: cell-based, human; conditions: 10 nM labelled peptide, 30 min, cells untreated (DMSO), apoptosis (TNF + BV-6) or necroptosis (TSZ), 6 h, washed
Experimental: HT-29 cells grown in TC treated T175 flasks (Corning^TM) were aspirated, washed once with RT DPBS then trypsinised with 0.3 vol warmed trypsin EDTA for 3–5 min at 37 °C twice. Trypsin was quenched with 0.7 vol warmed D10 and then the mixture was centrifuged 400×g at RT for 5 min. Supernatant was discarded, then cells were resuspended in warm supplemented DMEM. A small sample was diluted 1:10 in trypan blue and loaded onto a haemocytometer for cell counting, then the cell suspension was diluted in warmed DMEM to 8.5 × 10^4 cells/ml. Cells were seeded onto a 96-well clear bottom PhenoPlate (Revvity) coated in a collagen I matrix at 1.7 × 10^4 cells/well and incubated at 37 °C in 5% CO2 overnight.
CellTracker^TM Orange CMRA (Invitrogen) was diluted to 5 μM in DMEM and warmed to 37 °C. HT-29 cells were washed once in DPBS, then CellTracker^TM Orange (50 μl) was added to each well (excluding wells to be incubated with Alexa Fluor 594-labelled control peptide) and incubated at 37 °C in 5% CO2 for 45 min. Following incubation, CellTracker^TM Orange solution was aspirated and replaced with 150 μl D10. […]
Imaging was performed on an Opera Phenix (PerkinElmer) at 63X magnification (water immersion) in confocal mode using the parameters given below. […] Intensity thresholds were adjusted as indicated to remove background fluorescence based on control wells for image exports. […] Cell counts were identified using DAPI stain (Method C) and cytoplasm identified by CellTracker^TM Orange stain (Method B), and all subsequent analysis was conducted on Cy5 fluorescence detected within cells as determined by these parameters. Total Cy5 intensity analysis, as well as spot analysis (spots detected using Method B), was performed measuring number of detected spots, mean spot size (px^2) and spot fluorescence intensity (corrected and relative). […] Statistical significance between untreated, apoptosis and necroptosis induced conditions and between no peptide controls was determined by 2-way ANOVA testing using Tukey’s multiple comparisons tests.

[1] = Turbidity assay (absorbance at 350 nm); type: physicochemical; conditions: qualitative, tetra-lysine-tagged compared with K* peptide
Experimental: Solutions with appropriate buffering agent at pH 4.0–8.0 as specified, NaCl as required and containing 40 μM ThT were prepared in Corning^TM black clear bottom 96-well plates (cat no. 3631). Peptides and proteins were diluted from concentrated stocks into buffer immediately prior to measurement. […] Plates were sealed with optically clear sealing film (Corning^TM, cat no. 6575) and loaded into a BMG POLARstar Omega microplate reader maintained at RT or 37 °C. Plates were shaken for 30 s at 700 rpm before first read (unless otherwise specified), and wells were excited at 440 nm, with fluorescence emission measured at 480 nm (filters +/– 10 nm). The gain was set at 1–5% from a buffer and ThT-containing sample. Assays were continued until fluorescence emission plateaued. Turbidity assays were performed concurrently to ThT assays, with absorbance at 350 nm measured after ThT emission measurement.

With CC(C)C[C@H](NC(=O)[C@H](C)NC(=O)[C@H](Cc1ccc(O)cc1)NC(=O)[C@H](Cc1ccccc1)NC(=O)[C@H](CCCNC(=N)N)NC(=O)[C@H](CCCCN)NC(=O)[C@H](C)NC(=O)[C@H](CCCNC(=N)N)NC(=O)[C@H](CC(C)C)NC(=O)[C@@H](NC(=O)[C@@H]1CSCC(=O)N[C@@H](Cc2ccc(O)cc2)C(=O)N[C@@H](C(C)C)C(=O)N[C@@H](CC(C)C)C(=O)N1)[C@@H](C)O)C(=O)N[C@@H](Cc1ccccc1)C(=O)N[C@@H](CC(C)C)C(=O)N[C@@H](CO)C(=O)NCC(=O)N[C@@H](CCCCN)C(=O)N[C@@H](CCCCN)C(=O)N[C@@H](CCCCN)C(=O)N[C@@H](CCCCN)C(=O)O [A1Ktag] ({CH2CO}-YVLCTLRAKRFYALFLSGKKKK-OH; thioether N-4; C-terminus assumed) the “presence/binding of labelled peptide in fixed, permeabilised cells” value (shortened to “presence/binding of labelled peptide”) (HT-29 cells) was “observed inside all cells” and the solubility [1] was “increased solubility”.

In the case of CC[C@H](C)[C@@H]1NC(=O)[C@H](Cc2ccc(O)cc2)NC(=O)[C@H](CCCNC(=N)N)NC(=O)[C@H](CO)NC(=O)[C@H](Cc2c[nH]c3ccccc23)NC(=O)[C@@H]2CCCN2C(=O)[C@H](C(C)C)NC(=O)[C@H](CC(N)=O)NC(=O)[C@H](Cc2ccccc2)NC(=O)[C@H](Cc2ccc(O)cc2)NC(=O)CSC[C@@H](C(=O)NCC(=O)N[C@@H](CCCCN)C(=O)N[C@@H](CCCCN)C(=O)N[C@@H](CCCCN)C(=O)N[C@@H](CCCCN)C(=O)O)NC(=O)[C@H](Cc2ccc(O)cc2)NC(=O)[C@H](Cc2ccc(O)cc2)NC(=O)[C@H](C(C)C)NC(=O)[C@H](CO)NC(=O)[C@H](CC(C)C)NC1=O [A2Ktag] ({CH2CO}-YFNVPWSRYILSVYYCGKKKK-OH; thioether N-16; C-terminus assumed), the “presence/binding of labelled peptide” value (HT-29 cells) was “observed inside all cells”.

With CC[C@H](C)[C@@H]1NC(=O)[C@H](Cc2ccc(O)cc2)NC(=O)CSC[C@@H](C(=O)N[C@@H](Cc2c[nH]c3ccccc23)C(=O)N[C@H](C(=O)N[C@@H](Cc2c[nH]c3ccccc23)C(=O)N[C@@H](CC(C)C)C(=O)N[C@@H](CC(C)C)C(=O)N[C@@H](CO)C(=O)NCC(=O)N[C@@H](CCCCN)C(=O)N[C@@H](CCCCN)C(=O)N[C@@H](CCCCN)C(=O)N[C@@H](CCCCN)C(=O)O)C(C)C)NC(=O)[C@H](CCC(N)=O)NC(=O)[C@H](CC(=O)O)NC(=O)[C@H](Cc2ccc(O)cc2)NC(=O)[C@H](Cc2c[nH]c3ccccc23)NC(=O)[C@H](CCCNC(=N)N)NC(=O)[C@H](CC(C)C)NC(=O)[C@H](C(C)C)NC(=O)[C@H](CCC(=O)O)NC1=O [A4Ktag] ({CH2CO}-YIEVLRWYDQCWVWLLSGKKKK-OH; thioether N-11; C-terminus assumed) the “presence/binding of labelled peptide” value (HT-29 cells) was “observed inside all cells”.
